Assay results published in PMC6842059 (ChemMedChem, 2019).

Key:
in vitro = settings: human

Structure (SMILES) | selectivity index (CC50/IC50) (MT-2 cells) | CC50 (in vitro) [µM]
CC(C)CN(C[C@@H](O)[C@H](Cc1ccccc1)NC(=O)O[C@H]1CO[C@H]2OCC[C@H]21)S(=O)(=O)c1ccc(B(O)O)cc1 [Inhibitor 5, (4-(N-((2R,3S)-3-(((((3R,3aS,6aR)-hexahydrofuro[2,3-b]furan-3-yl)oxy)carbonyl)amino)-2-hydroxy-4-phenylbutyl)-N-isobutylsulfamoyl)phenyl)boronic acid] | > 2,040 | > 100
CC(C)CN(C[C@@H](O)[C@H](Cc1ccccc1)NC(=O)O[C@H]1C2CO[C@H]3OC[C@@H]1C3C2)S(=O)(=O)c1ccc(B(O)O)cc1 (stereo partly drawn) [Inhibitor 6, (4-(N-((2R,3S)-3-(((((3S,7aS,8S)-Hexahydro-4H-3,5-methanofuro[2,3-b]pyran-8-yl)oxy)carbonyl)amino)-2-hydroxy-4-phenylbutyl)-N-isobutylsulfamoyl)phenyl)boronic acid] | > 2,650 | > 100
